# Values joined by “and” are separate entries in the source; they are usually repeats but may differ in a detail not shown here. Equal values may be shown once. Read-outs that look alike come from different tables or passages of the source.
# How the values were obtained:
# [1] = Storage stability by HPLC (solid or chloroform solution; temperature, light); assay type: physicochemical
# Procedure: At this point, a stability study was conducted on batch CH730/16/8g.
# The samples were analyzed at t=0 and after 20 days.
# [2] = test system: human PBMCs; assay: IL-6 secretion in human PBMCs, two batches of Compound A and SC12; assay type: cell-based; details: 24 h, 4 doses
# Procedure: PBMCs were purified from two donors and plated into 96 well plates at 2×10^5 cells/well in RPMI media including human 2% heat inactivated AB serum, glutamine, Pen-strep and R-mercapto-ethanol. The cells were treated with TLR7 agonists for 24 h in 4 doses. The conditioned media was removed for ELISA analyses for IL-6, and the EC50 value determined for each compound and each batch.
# All compounds were tested in four concentrations (10-1-0.1-0.01 micromolar).
# Concentrations of IL-6 were determined by ELISA from R&D Systems using the Microsoft Excel software. The results were analyzed in Graph Pad Prism in order to prepare dose-response curves, and for determination of EC50 values.
# [3] = Plasma stability, second experiment, human plasma; details: human plasma, second experiment
# Procedure: Second experiment: Test compounds (5 mM in DMSO) were diluted at the final concentration of 250 μM with ACN-MeOH 1:1.
# Human plasma (1.180 ml) was spiked with 20 μl of 250 μM solution of the compound (4.16 μM final concentration) and aliquots of 50 μl volume were taken at 0, 15, 30, 60, 120 min and 5 hrs, and immediately quenched with 200 μl of a solution of Verapamil 250 ng/ml (internal standard, I.S.) in ACN:MeOH 95:5. Samples were then centrifuged for 20 min at 3000 rpm at 10° C. and analyzed as reported below. […] The supernatant fractions were analyzed by LC/MS/MS. Zero-time incubations were used as 100% values.
# Stability was calculated as percentage remaining of the area ratio compound/I.S. at each time point vs. area ratio compound/I.S. at time 0 min.
# [4] = test system: whole blood; assay: Cytokine secretion in human whole blood assay (ELISA); assay type: cell-based
# Procedure: A volume of approximately 55 mL fresh whole blood was drawn in heparinized Vacutainers from three healthy adult anonymous volunteers as described (J. A. Ida, Journal of Immunol Methods, 310, 2006, 86-99). […] Before drawing the blood, the compounds were added to 96 well round bottom plates in a 10× diluted sample at 20 ul. The compounds were diluted in RPMI media without serum but with antibiotics. Antibiotics were added at a 10× concentration. After drawing the blood, the whole blood sample was gently mixed to obtain a homogeneous sample, and 180 ul was added to each well.
# After 6 hours and 24 hours incubation, plasma was removed for ELISA (IL-6, IL-10, IL-12p40 and IFN-alpha). ELISA was made at the 6 and 24 hours time point for all concentrations. After 24 hours incubation with selected compound concentrations, cells were analyzed for activation markers by FACS.
# All compounds were setup in concentrations at 0-0.01-0.03-0.1-0.5-2.0-10.0 micromolar as the final concentration. Vehicle control was DMSO control, where we used the highest concentration used for the compounds. After addition of blood, all plates were gently agitated at 37° C. and 5% CO2 until harvest. The samples were removed after 6 or 24 hours incubation, and pooled into appropriate tubes (2 ml).
# Concentrations of cytokines were determined by ELISA from R&D Systems. The results were analyzed in Graph Pad Prism in order to prepare dose-response
# curves, and for determination of EC50 values. FACS analysis was made by using Becton-Dickinson FACSDiva software and subsequently illustrated in Graph Pad Prism.
# [5] = target: CYP3A5 (Homo sapiens (Human), UniProt P20815); assay: Fluorescent High Throughput P450 assay, CYP3A5; assay type: biochemical; details: substrate BFC; read-out: CYP3A5 IC50 (Mean ± S.D.)
# Sequence of CYP3A5 (P20815 whole entry, looked up): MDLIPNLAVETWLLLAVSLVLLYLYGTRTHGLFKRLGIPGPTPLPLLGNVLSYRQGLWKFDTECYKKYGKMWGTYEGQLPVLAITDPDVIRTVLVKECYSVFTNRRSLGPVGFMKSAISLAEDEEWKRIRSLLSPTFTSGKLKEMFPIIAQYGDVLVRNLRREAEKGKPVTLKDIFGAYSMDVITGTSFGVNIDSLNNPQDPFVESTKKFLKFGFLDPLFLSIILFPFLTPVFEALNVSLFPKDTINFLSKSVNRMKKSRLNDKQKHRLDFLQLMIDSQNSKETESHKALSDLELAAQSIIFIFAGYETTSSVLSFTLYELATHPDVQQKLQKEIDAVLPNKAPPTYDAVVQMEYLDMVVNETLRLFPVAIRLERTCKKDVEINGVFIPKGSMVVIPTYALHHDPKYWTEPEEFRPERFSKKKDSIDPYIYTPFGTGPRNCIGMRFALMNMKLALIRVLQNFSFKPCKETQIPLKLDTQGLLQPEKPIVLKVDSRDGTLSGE
# Procedure: Inhibition of the P450 isoforms was measured in specific assays using specific substrates that become fluorescent upon CYP metabolism. Compounds, dissolved in ACN (acetonitrile) (CYP2E1, CYP2C8, CYP2B6, CYP3A5) or DMSO (all remaining isoforms), were tested in duplicate (n=2) in concentration-response curves (eight concentrations) in a 96-well plate containing incubation/NADPH regenerating buffer. Specific isoenzymes and substrates were added and incubated at 37° C. Reactions were terminated at different times, depending on the assays, and plates read on a Fluoroskan Ascent at the appropriate emission/excitation wavelengths. Concentration-response curves performed in duplicate for known inhibitors for each isoenzyme were tested in every assay as positive control.
# [6] = Serum exposure after intravesical chronic treatment
# Procedure: Serum samples were taken at time points: day 0, 2 hours, day 1, 24 hours, and day 6, 2 hours.
# The plate was shaken for 10 minutes and filtered under vacuum (5-10 mm Hg). […] The plate was shaken for 10 minutes and filtered under vacuum (5-10 mm Hg). Samples were evaporated and re-suspended in 70 microliters of acetonitrile/methanol 1:1. […] Column: Acquity BEH C18 50×2.1 mm 1.7 micrometers; injection volume 5 microliters, T column 50° C. […] Column: Acquity BEH C8 50×2.1 mm 1.7 micrometers injection. volume 10 microliters, T column 50° C.
# [7] = test system: AY-27 rat bladder cancer cell-line
# [8] = Day 1, 24 hours, LLOQ 0.5 ng/ml SC12, 2.5 ng/ml Imiquimod
# [9] = Day 6, 2 hours, LLOQ 0.5 ng/ml SC12, 2.5 ng/ml Imiquimod
# [10] = day 12, group 1 Imiquimod 0.1%, group 2 SC12 0.38%
smiles,measurement,setting,value
CCCCCCCCCCCC(=O)OCC(COP(=O)(O)OCCNC(=O)c1ccc(Cn2c(=O)[nH]c3c(N)nc(OCCOC)nc32)cc1)OC(=O)CCCCCCCCCCC (stereo not shown) [SC12],HPLC RRT = 1,"[1]; Solid, RT and light, t = 20 days",RRT = 1: 87.8%
same,HPLC RRT = 1,"[1]; Solid, external T and light, t = 20 days",RRT = 1: 84.0%
same,HPLC RRT = 1,"[1]; Solution in CHCl3, RT and light, t = 20 days",RRT = 1: 88.0%
same,HPLC RRT = 1,[1]; t = 0,RRT = 1: 90.3%
same,EC50,"[2]; Donor 1, listed as SC12 new 20288",1870 nM
same,EC50,"[2]; Donor 1, listed as SC12 old CH730/2/13D",2010 nM
same,EC50,"[2]; Donor 2, listed as SC12 new 20288",947 nM
same,EC50,"[2]; Donor 2, listed as SC12 old CH730/2/13D",1030 nM
same,% Remaining,[3]; 0 min,100%
same,% Remaining,[3]; 15 min,112.6 ± 1.0%
same,% Remaining,[3]; 30 min,110.0 ± 1.0%
same,% Remaining,[3]; 60 min,96.7 ± 6.3%
same,% Remaining,[3]; 120 min,102.1 ± 8.7%
same,Plasma stability classification,[3]; up to 120 min,stable
same,IL-10 production,[4]; 6 hours incubation,no IL-10 production was seen
same,EC50,"[4]; Donor 1, read-out: EC50-IFN-alpha, 24 h Incubation",200 nM
same,EC50,"[4]; Donor 1, read-out: EC50-IL-6, 24 h Incubation",220 nM
same,EC50,"[4]; Donor 1, read-out: EC50-IL-10, 24 h Incubation",1340 nM
same,EC50,"[4]; Donor 1, read-out: EC50-IL-12p40, 24 h Incubation",4100 nM
same,EC50,"[4]; Donor 2, read-out: EC50-IFN-alpha, 24 h Incubation",110 nM
same,EC50,"[4]; Donor 2, read-out: EC50-IL-6, 24 h Incubation",60 nM
same,EC50,"[4]; Donor 2, read-out: EC50-IL-10, 24 h Incubation",410 nM
same,EC50,"[4]; Donor 2, read-out: EC50-IL-12p40, 24 h Incubation",1420 nM
same,EC50,"[4]; Donor 3, read-out: EC50-IFN-alpha, 24 h Incubation",240 nM
same,EC50,"[4]; Donor 3, read-out: EC50-IL-6, 24 h Incubation",170 nM
same,EC50,"[4]; Donor 3, read-out: EC50-IL-10, 24 h Incubation",9000 nM
same,EC50,"[4]; Donor 3, read-out: EC50-IL-12p40, 24 h Incubation",14200 nM
same,EC50,"[4]; read-out: EC50-IFN-alpha, 6 h Incubation, Donor 1",980 nM
same,EC50,"[4]; read-out: EC50-IFN-alpha, 6 h Incubation, Donor 2",830 nM
same,EC50,"[4]; read-out: EC50-IFN-alpha, 6 h Incubation, Donor 3",1660 nM
same,EC50,"[4]; read-out: EC50-IL-6, 6 h Incubation, Donor 1",570 nM
same,EC50,"[4]; read-out: EC50-IL-6, 6 h Incubation, Donor 2",180 nM
same,EC50,"[4]; read-out: EC50-IL-6, 6 h Incubation, Donor 3",370 nM
same,EC50,"[4]; read-out: EC50-IL-12, 6 h Incubation (IL-12p40), Donor 2",2360 nM
same,EC50,"[4]; read-out: EC50-IL-12, 6 h Incubation (IL-12p40), Donor 3",3560 nM
same,IC50,[5],10500 ± 500 nM
same,"Levels in serum, Mean ± S.D.","[6]; Day 0, 2 hours",0.5 ± 0.5 ng/mL
same,"Levels in serum, individual mice","[6]; Day 0, 2 hours, intravesical Imiquimod 208 nmol or SC12 206.5 nmol, LLOQ 0.5 ng/ml SC12, 2.5 ng/ml Imiquimod",<LLOQ (2×) and 1.0 ng/ml and 0.5 ng/ml
same,"Levels in serum, Mean ± S.D.",[6]; [8],<LLOQ
same,"Levels in serum, individual mice",[6]; [8],<LLOQ
same,"Levels in serum, Mean ± S.D.",[6]; [9],<LLOQ
same,"Levels in serum, individual mice",[6]; [9],<LLOQ
same,Number of rats with a tumor positive bladder,[7]; day 12,8 of 14
same,"Rats with pT2 Tumor, number (% of 14)",[7]; [10],7 (50.0%)
same,"Tumor free rats, number (% of 14)",[7]; [10],6 (42.9%)
same,"Rats with pTa Tumor, number (% of 14)","[7]; day 12, group 2 SC12 0.38%",1 (7.1%)
same,Mean weight of the rat bladders,"[7]; day 12, intravesical 0.5 ml on day 2 and 5, group 1 Imiquimod 0.1%, group 2 SC12 0.38%",0.1014 grams
same,Mean number of tumors per rat bladder,"[7]; group 1 Imiquimod 0.1%, group 2 SC12 0.38%",1.36
same,Mean invasion depth,"[7]; tumor positive bladders, group 1 Imiquimod 0.1%, group 2 SC12 0.38%",1.4250 mm
